Results from patent US10703784B2, “Antigens and epitopes derived from Mycobacterium tuberculosis” (priority 2011, dated 2020).
Several values for one entry are separate records, joined by “and”; a condition that tells them apart may be missing. Identical values can stand only once. Like-named read-outs stand apart in the source and are kept apart here.

What was measured:
Assay type in all cases: cell-based, human
[1] = system: PBMCs from LTBI donors (IFN-γ production)
[2] = system: PBMCs depleted of CD4+ or CD8+ T cells
[3] = system: CD4-purified cells from LTBI donors; conditions: range over donors analyzed
[4] = individual MTB epitope peptide, one value per responding LTBI donor
[5] = phenotype of the responding T cells per donor, n.d. = assay not done

## AAASWDALAAELASA
[1]; [4]
  SFC: 217.5 and 130.0 and 440.8
[2]; [5]
  T cell phenotype: CD4

## LAWLVQASANSAAMA
[1]; [4]
  SFC: 25.0
[2]; [5]
  T cell phenotype: undetectable

## AATQARAAAAAFEAA
[1]; [4]
  SFC: 25.0
[2]; [5]
  T cell phenotype: undetectable

## LAAAAAWDALAAELY
[1]; [4]
  SFC: 170.0 and 78.3 and 411.7
[2]; [5]
  T cell phenotype: CD4

## AQLSQLISLLPSTLQ
[1]; [4]
  SFC: 50.0 and 51.7 and 23.3
[2]; [5]
  T cell phenotype: undetectable

## ELFVAAYVPYVAWLV
[1]; [4]
  SFC: 25.0 and 20.0 and 30.0 and 21.7 and 28.3
[2]; [5]
  T cell phenotype: undetectable

## AQIYQAVSAQAAAIH
[1]; [4]
  SFC: 225.0 and 86.7
[2]; [5]
  T cell phenotype: CD4

## YAAALVAMPTLAELA
[1]; [4]
  SFC: 25.0
[2]; [5]
  T cell phenotype: undetectable

## GQNYTYKWETFLTRE
[1]; [4]
  SFC: 26.7 and 66.7 and 50.0 (2×) and 33.3
[2]; [5]
  T cell phenotype: CD4 and undetectable (4×)

## AYGSFVRTVSLPVGA
[1]; [4]
  SFC: 271.7 and 45.0
[2]; [5]
  T cell phenotype: CD4

## AAVPAVGAAAGAPAA
[1]; [4]
  SFC: 203.3 and 28.3 and 20.0 and 30.0
[2]; [5]
  T cell phenotype: CD4 (2×) and undetectable (2×)

## LSPISNMVSMANNHM
[1]; [4]
  SFC: 70.0 and 115.0 and 43.3 and 28.3
[2]; [5]
  T cell phenotype: CD4 and undetectable (3×)

## LLEFAVVLELAILSI
[1]; [4]
  SFC: 26.7
[2]; [5]
  T cell phenotype: undetectable

## AELMILIATNLLGQN
[1]; [4]
  SFC: 33.3 and 90.0
[2]; [5]
  T cell phenotype: CD4 and undetectable

## APQINFFYYLGEPIV
[1]; [4]
  SFC: 20.0
[2]; [5]
  T cell phenotype: undetectable

## APYVAWMRATAIQAE
[1]; [4]
  SFC: 41.7
[2]; [5]
  T cell phenotype: undetectable

## GINTIPIAINEAEYV
[1]; [4]
  SFC: 120.0 and 201.7 and 20.0 and 118.3
[2]; [5]
  T cell phenotype: CD4 (2×) and undetectable

## GWSSLGREYAAVAEE
[1]; [4]
  SFC: 185.0
[2]; [5]
  T cell phenotype: CD4

## FVQALTTAAASYASV
[1]; [4]
  SFC: 26.7 and 23.3
[2]; [5]
  T cell phenotype: undetectable

## FGQNTSAIAAAEAQY
[1]; [4]
  SFC: 161.7 and 176.7
[2]; [5]
  T cell phenotype: CD4

## EIVQFLEETFAAYDQ
[1]; [4]
  SFC: 103.3 and 105.0 and 25.0 and 80.0
[2]; [5]
  T cell phenotype: CD4 (3×) and undetectable

## RGKVVLIDFWAYPCI
[1]; [4]
  SFC: 35.0
[2]; [5]
  T cell phenotype: undetectable

## SSYAATEVANAAAAS
[1]; [4]
  SFC: 60.0
[2]; [5]
  T cell phenotype: CD4

## FGQNTASIAATEAQY
[1]; [4]
  SFC: 110.0 and 26.7
[2]; [5]
  T cell phenotype: CD4

## AQNGVQAMSSLGSSL
[1]; [4]
  SFC: 46.7
[2]; [5]
  T cell phenotype: CD4

## DPMVQIPRLVANNTR
[1]; [4]
  SFC: 60.0
[2]; [5]
  T cell phenotype: undetectable

## AAIHEMFVNTLQMSS
[1]; [4]
  SFC: 25.0 and 165.0
[2]; [5]
  T cell phenotype: CD8

## ALSRVHSMFLGTGGS
[1]; [4]
  SFC: 71.7 and 43.3
[2]; [5]
  T cell phenotype: CD4

## ALLPRAGAAAAAALP
[1]; [4]
  SFC: 45.0 and 26.7
[2]; [5]
  T cell phenotype: CD4

## MSFVTTQPEALAAAA
[1]; [4]
  SFC: 121.7
[2]; [5]
  T cell phenotype: CD4

## DYVRMWVQAATVMSA
[1]; [4]
  SFC: 343.3 and 38.3 and 31.7 and 81.7 and 28.3
[2]; [5]
  T cell phenotype: CD4 (3×) and CD4/CD8 and undetectable

## MSQIMYNYPAMMAHA (listed as Mycobacterium tuberculosis) [Rv0288/Rv3019c]
[3]
  effector memory T cells among tetramer+ cells: 4.8-17.2%
  naïve (CCR7+CD45RA+) among tetramer+ cells: 9.8-37.1%

## ALQSHDDVALVSVMW
[1]; [4]
  SFC: 28.3 and 61.7
[2]; [5]
  T cell phenotype: CD4 and undetectable

## GTVVLTATFALGAAL
[1]; [4]
  SFC: 33.3 and 128.3 and 71.7 and 30.0
[2]; [5]
  T cell phenotype: CD4 (2×) and undetectable (2×)

## ADYLRMWIQAATVMS
[1]; [4]
  SFC: 375.0 and 35.0 and 128.3 and 48.3 and 26.7 and 75.0
[2]; [5]
  T cell phenotype: CD4 (5×) and undetectable

## IQARAAALAFEQAYA
[1]; [4]
  SFC: 23.3 and 33.3
[2]; [5]
  T cell phenotype: CD4 and undetectable

## AEAPAAAAAPEEQVQ
[1]; [4]
  SFC: 20.0
[2]; [5]
  T cell phenotype: CD4

## AAIHEMFVNTLVASS
[1]; [4]
  SFC: 41.7 and 160.0 and 26.7 and 61.7
[2]; [5]
  T cell phenotype: CD8 and undetectable (2×)

## YVAWMSATAALAREA
[1]; [4]
  SFC: 150.0 and 83.3 and 58.3 and 25.0
[2]; [5]
  T cell phenotype: CD4 (3×) and undetectable

## QVPSASMGRDIKVQF
[1]; [4]
  SFC: 53.3 and 48.3
[2]; [5]
  T cell phenotype: undetectable

## AAGGWDSLAAELATT
[1]; [4]
  SFC: 130.0 and 31.7
[2]; [5]
  T cell phenotype: CD4 and undetectable

## GWIISNIFGAIPVLG
[1]; [4]
  SFC: 195.0 and 41.7 and 58.3 and 26.7
[2]; [5]
  T cell phenotype: CD4 and undetectable (3×)

## IVQINGRHFDLRAQG
[1]; [4]
  SFC: 26.7
[2]; [5]
  T cell phenotype: undetectable

## GEEYLILSARDVLAV
[1]; [4]
  SFC: 136.7 and 60.0 and 145.0 and 151.7 and 45.0 and 53.3
[2]; [5]
  T cell phenotype: CD4 (4×) and undetectable (2×)

## PSPSMGRDIKVQFQS
[1]; [4]
  SFC: 45.0 and 46.7
[2]; [5]
  T cell phenotype: undetectable

## FFGQNTAAIAATEAQ
[1]; [4]
  SFC: 193.3 and 165.0
[2]; [5]
  T cell phenotype: CD4

## LALVGFLGGLITGIS
[1]; [4]
  SFC: 65.0 (2×) and 36.7 and 25.0
[2]; [5]
  T cell phenotype: CD4 and undetectable (3×)

## AWMSAAAAQAEQAAT
[1]; [4]
  SFC: 25.0
[2]; [5]
  T cell phenotype: undetectable

## AGCQTYKWETFLTSE
[1]
  SFC: 60.0 and 55.8 and 36.7 and 51.7
[2]
  T cell phenotype: CD4 and undetectable

## SARLRLLRDRLVEGV
[1]; [4]
  SFC: 138.3 and 23.3
[2]; [5]
  T cell phenotype: CD4 and undetectable

## ILPIAEMSVVAMEFG
[1]; [4]
  SFC: 111.7 and 26.7 and 33.3
[2]; [5]
  T cell phenotype: CD4 and undetectable (2×)
